Measured values as given in ChEMBL document CHEMBL4330139, “Synthetically modified methoxsalen for enhanced cytotoxicity in light and dark reactions” (Bioorg Med Chem Lett, 2019).

Legend:
[1] = Dark toxicity against mouse PAM212 cells assessed as cell growth inhibition incubated for 30 mins under dark condition measured after 5 days by coulter counting method; assay type: cell-based
[2] = Dark toxicity against mouse PAM212 cells assessed as cell growth inhibition incubated for 5 days under dark condition by coulter counting method; assay type: cell-based
PAM212 = assay: Phototoxicity against mouse PAM212 cells assessed as cell growth inhibition preincubated for 30 mins followed by 1.28 J/cm2 UV light exposure and measured after 5 days by coulter counting method; assay type: functional, cell-based; conditions: PAM212, light or radiation study

| Compound | IC50 at 30 min [1] [µM] | IC50 at 5 days [2] [µM] | IC50 (PAM212) [µM] |
| --- | --- | --- | --- |
| COc1c2occc2c(NC(=O)NCCCl)c2ccc(=O)oc12 | > 100 | > 300 | > 100 |
| COc1c2occc2c(NC(=O)c2ccc(N=[N+]=[N-])cc2)c2ccc(=O)oc12 | > 100 | > 300 | 33 |
| CCCCN(C)/N=N/c1c2ccoc2c(OC)c2oc(=O)ccc12 | > 100 | 7 | 4 |
| CCN(CC)/N=N/c1c2ccoc2c(OC)c2oc(=O)ccc12 | > 100 | 6 | > 100 |
| CCN(C)/N=N/c1c2ccoc2c(OC)c2oc(=O)ccc12 | > 100 | 10 | > 70 |
| COc1c2occc2cc2ccc(=O)oc12 [METHOXSALEN] | > 100 | > 100 | 0.1 |
| COc1c2occc2c(/N=N/N(C)C)c2ccc(=O)oc12 | > 100 | 20 | > 100 |
| COc1c2occc2c(NC(=O)CCl)c2ccc(=O)oc12 | 50 | 4 | 40 |
